Results: ChEMBL document CHEMBL5150066, “Synthesis of estrone selenocyanate Compounds, anti-tumor activity evaluation and Structure-activity relationship analysis” (Bioorg Med Chem, 2022)

What was measured:
HeLa [1] = experiment: Antitumor activity against human HeLa cells xenografted in wildtype zebrafish AB yolk sac assessed as tumor fluorescence intensity at 15 uM measured immediately by fluorescence based assay; type: functional
T47D = experiment: Antiproliferative activity against human T47D cells assessed as inhibition of cell growth incubated for 72 hrs by MTT assay; type: functional, cell-based
[2] = Cytotoxicity against HEK293T cells assessed as inhibition of cell growth incubated for 72 hrs by MTT assay; type: toxicity, cell-based, HEK-293T; settings: human
HeLa [3] = experiment: Antitumor activity against human HeLa cells xenografted in wildtype zebrafish AB yolk sac assessed as tumor fluorescence intensity at 15 uM measured 48 hrs post injection by fluorescence based assay; type: functional
HeLa [4] = experiment: Antitumor activity against human HeLa cells xenografted in wildtype zebrafish AB yolk sac assessed as tumor fluorescence area at 15 uM measured immediately by fluorescence based assay; type: functional
[5] = Selectivity index, ratio of IC50 for cytotoxicity against HEK293T cells to IC50 for antiproliferative activity against human HeLa cells; type: toxicity, cell-based; settings: HEK293T cells versus HeLa cells, read-out: Ratio IC50
HepG2 = experiment: Antiproliferative activity against human HepG2 cells assessed as inhibition of cell growth incubated for 72 hrs by MTT assay; type: functional, cell-based; settings: HepG2, 72 h
HeLa [6] = experiment: Antitumor activity against human HeLa cells xenografted in wildtype zebrafish AB yolk sac assessed as tumor fluorescence area at 15 uM measured 48 hrs post injection by fluorescence based assay; type: functional
MCF7 = experiment: Antiproliferative activity against human MCF7 cells assessed as inhibition of cell growth incubated for 72 hrs by MTT assay; type: functional, cell-based; settings: MCF7, 72 h
HeLa [7] = experiment: Antiproliferative activity against human HeLa cells assessed as inhibition of cell growth incubated for 72 hrs by MTT assay; type: functional, cell-based
SK-OV-3 = experiment: Antiproliferative activity against human SK-OV-3 cells assessed as inhibition of cell growth incubated for 72 hrs by MTT assay; type: functional, cell-based; settings: SK-OV-3, 72 h

SMILES: C[C@]12CC[C@@H]3c4ccc(OCCCCC[Se]C#N)cc4CC[C@H]3[C@@H]1CCC2=O
- Flu intensity (HeLa [1]): 43169.53
- IC50 (T47D): 68.2 µM
- IC50 at 72 h [2]: 77.2 µM
- Flu intensity (HeLa [3]): 5328.6
- Activity (HeLa [4]): 79354.17 pixel
- selectivity ratio [5]: 8.1
- IC50 (HepG2): > 100 µM
- Activity (HeLa [6]): 12391.83 pixel
- IC50 (MCF7): 38.3 µM
- IC50 (HeLa [7]): 9.5 µM
- IC50 (SK-OV-3): 31 µM
